By Ki is commonly meant the equilibrium dissociation constant of an inhibitor or competing ligand from its target.

The source of these data is US6403594B1, “Benzopyran derivatives” (Recordati, S.A. Chemical and Pharmaceutical Company, priority 1999, dated 2002).

The target of assay [1] is T1, α1b-adrenoceptor (recombinant) (Homo sapiens, UniProt P35368).
T1 construct: expressed in transfected cells
T1 sequence (P35368 1-520): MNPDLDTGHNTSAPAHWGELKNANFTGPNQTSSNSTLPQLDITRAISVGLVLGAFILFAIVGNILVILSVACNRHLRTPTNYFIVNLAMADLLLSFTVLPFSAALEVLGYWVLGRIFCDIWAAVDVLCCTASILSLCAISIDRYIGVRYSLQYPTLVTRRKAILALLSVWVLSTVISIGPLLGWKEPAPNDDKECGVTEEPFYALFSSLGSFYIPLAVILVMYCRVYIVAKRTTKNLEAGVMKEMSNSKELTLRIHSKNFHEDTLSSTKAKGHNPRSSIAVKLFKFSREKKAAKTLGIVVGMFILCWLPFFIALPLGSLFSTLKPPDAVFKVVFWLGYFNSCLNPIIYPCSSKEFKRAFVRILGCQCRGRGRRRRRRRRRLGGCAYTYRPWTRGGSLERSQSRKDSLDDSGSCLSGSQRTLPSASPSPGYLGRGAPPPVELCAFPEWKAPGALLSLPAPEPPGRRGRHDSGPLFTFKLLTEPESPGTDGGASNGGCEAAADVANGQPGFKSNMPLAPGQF
Put plainly: Radioligand binding, cloned α1b-adrenoceptor ([3H]prazosin). The note with it: read-out: Affinity for recombinant α1b-adrenoceptor, cloned receptors (Ki).

The next assay has as its system diastolic blood pressure. Put plainly: Lowering of diastolic blood pressure in anaesthetised dogs after i.v. administration. The format is in vivo, dog. Here is the method: The experiments were performed according to the method of Imagawa J. et al., J. Pharmacol. Methods 22: 103-111, 1989, with substantial modifications, as follows: adult male beagle dogs, weighing 8-10 kg, were anaesthetised with pentobarbital sodium (30 mg/kg i.v. and 2 mg/kg/h i.v.), intubated and spontaneously ventilated with room air. In order to monitor systemic blood pressure (BP), a polyethylene (PE) catheter was introduced into the aortic arch through the left femoral artery. A collateral of the left femoral vein was cannulated for infusion of anaesthetic, and the right femoral vein was cannulated for administration of compounds. For intra-arterial (i.a.) injection of noradrenaline (NA), a PE catheter was introduced into the lower portion of the abdominal aorta via the right external iliac artery. Through such procedure, NA was selectively distributed to the lower urinary tract. A paramedian vertical suprapubic incision extending from the base of the pelvis to the mid-abdominal region was made and the bladder and prostate were exposed. The bladder was manually emptied with a syringe. Prostatic urethral pressure was monitored with a Mikro-tip catheter (5F) introduced into the bladder via the external urethral meatus, and withdrawn until the pressure transducer was positioned in the prostatic region of the urethra. A ligature was secured between the neck of the bladder and urethra to isolate the response of the latter and to avoid any interaction with the bladder. Another ligature was put around the Mikro-tip catheter at the external meatus, to secure the catheter itself. After a stabilising period following the surgical procedure (30 minutes), in which arterial and prostatic urethral pressure were continuously monitored as basal values, i.a. administration of NA was made at intervals of 20 minutes. The doses of NA chosen were such to produce an increase of at least 100% in urethral pressure. The test compounds were administered i.v. in a cumulative manner with intervals of 15-20 minutes between administrations. I.a. injections of NA were repeated 5 minutes after every dosing of test compound with intervals of about 10 minutes between stimulations. In order to compare the effects of the administered compound, dose/response curves (log dose transformation) were constructed by computing, at the peak effect, the percent decrease in diastolic blood pressure and the percent inhibition of the increase in urethral pressure induced by NA.

Assay [2] deals with T2, α1d-adrenoceptor (recombinant) (Homo sapiens, UniProt P25100).
T2 sequence (P25100 1-572): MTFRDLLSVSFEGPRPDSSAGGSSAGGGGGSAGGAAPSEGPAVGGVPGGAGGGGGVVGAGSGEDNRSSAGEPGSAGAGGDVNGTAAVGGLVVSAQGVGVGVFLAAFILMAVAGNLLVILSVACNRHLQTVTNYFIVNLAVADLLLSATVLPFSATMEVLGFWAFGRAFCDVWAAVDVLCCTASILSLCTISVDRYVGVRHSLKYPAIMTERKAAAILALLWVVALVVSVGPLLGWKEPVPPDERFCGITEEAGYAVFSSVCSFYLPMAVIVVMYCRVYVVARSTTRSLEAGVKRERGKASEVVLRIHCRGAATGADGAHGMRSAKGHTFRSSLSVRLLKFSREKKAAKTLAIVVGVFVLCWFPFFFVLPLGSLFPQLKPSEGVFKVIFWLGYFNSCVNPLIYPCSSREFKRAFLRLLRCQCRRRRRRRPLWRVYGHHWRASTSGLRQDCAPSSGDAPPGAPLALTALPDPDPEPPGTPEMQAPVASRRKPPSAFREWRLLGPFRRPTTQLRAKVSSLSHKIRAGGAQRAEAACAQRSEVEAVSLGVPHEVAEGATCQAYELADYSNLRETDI
Put plainly: Radioligand binding, cloned α1d-adrenoceptor ([3H]prazosin). The note with it: read-out: Affinity for recombinant α1d-adrenoceptor, cloned receptors (Ki).

Take `COc1ccc(Cl)cc1N1CCN(CCCNC(=O)c2cccc3c(=O)c(C)c(C(N)=O)oc23)CC1` [Example 1, 2-Carbamoyl-8-{3-[4-(5-chloro-2-methoxyphenyl)-1-piperazinyl]-propylcarbamoyl}-3-methyl-4-oxo-4H-1-benzopyran]: the Ki in assay [1] came out at 2.62 nM; in assay [2], 57.4 nM. For the same molecule, the “DBP ED25: active dose lowering diastolic blood pressure by 25%” value with diastolic blood pressure was found to be 2769 µg/kg.

For the molecule `CCOC(=O)c1oc2c(C(=O)NCCCN3CCN(c4cc(Cl)ccc4OC)CC3)cccc2c(=O)c1C` [Example 4, 2-Ethoxycarbonyl-8-{3-[4-(5-chloro-2-methoxyphenyl)-1-piperazinyl]-propylcarbamoyl}-3-methyl-4-oxo-4H-1-benzopyran], the inhibition constant (Ki) in assay [1] was 0.08 nM; in assay [2] it was 2.75 nM. In the assay with diastolic blood pressure, the “DBP ED25: active dose lowering diastolic blood pressure by 25%” value is 163.3 µg/kg.
